Structures are written as SMILES.

Broadly, the IC50 is the concentration at which inhibition is half-maximal. A lower IC50 goes with greater potency.

Chain of TrkA (P04629 33-796): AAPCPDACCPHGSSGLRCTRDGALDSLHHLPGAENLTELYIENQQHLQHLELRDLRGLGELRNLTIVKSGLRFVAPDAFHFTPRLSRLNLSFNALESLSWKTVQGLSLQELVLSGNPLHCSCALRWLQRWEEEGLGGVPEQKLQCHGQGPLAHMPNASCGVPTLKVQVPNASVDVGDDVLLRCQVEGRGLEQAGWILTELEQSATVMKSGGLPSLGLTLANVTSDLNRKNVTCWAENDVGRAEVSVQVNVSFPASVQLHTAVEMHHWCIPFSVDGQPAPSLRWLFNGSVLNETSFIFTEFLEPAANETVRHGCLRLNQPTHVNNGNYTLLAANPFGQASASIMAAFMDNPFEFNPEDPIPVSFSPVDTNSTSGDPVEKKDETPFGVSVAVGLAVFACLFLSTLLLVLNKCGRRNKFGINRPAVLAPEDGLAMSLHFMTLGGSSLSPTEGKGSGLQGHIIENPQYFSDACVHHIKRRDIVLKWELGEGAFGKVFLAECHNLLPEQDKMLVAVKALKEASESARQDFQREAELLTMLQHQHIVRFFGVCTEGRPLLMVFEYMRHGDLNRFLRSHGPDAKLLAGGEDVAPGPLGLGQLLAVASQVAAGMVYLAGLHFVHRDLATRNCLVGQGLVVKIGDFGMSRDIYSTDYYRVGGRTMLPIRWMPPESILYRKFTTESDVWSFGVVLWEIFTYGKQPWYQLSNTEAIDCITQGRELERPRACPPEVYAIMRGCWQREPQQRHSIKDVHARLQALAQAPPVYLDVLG

In this assay the target is TrkA (Homo sapiens (Human), UniProt P04629). As to the kind of experiment: TrkA Omnia Assay. It is filed as biochemical. To be noted: averaged IC50; 20 nM enzyme, 500 μM ATP, 10 μM peptide substrate. In outline:
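Recombinant TrkA (20 nM) preincubated 10 min at ambient temperature with compound, then Omnia Tyr Peptide #4 (10 μM) and ATP (500 μM) added in 25 mM MOPS pH 7.5, 5 mM MgCl2, 0.005% Triton X-100. Fluorescence (ex 360/em 485 nm) followed continuously for 70 min; IC50 from initial rates by 4- or 5-parameter logistic fit.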
In turn, `COCCN1C[C@@H](NC(=O)Nc2c3c(nn2-c2ccccc2)CCC3)[C@](F)(c2ccccc2)C1` [Example 181, 1-((3R,4S)-4-fluoro-1-(2-methoxyethyl)-4-phenylpyrrolidin-3-yl)-3-(2-phenyl-2,4,5,6-tetrahydrocyclopenta[c]pyrazol-3-yl)urea] showed an IC50 of 100 to 1000 nM. In the case of `CCOc1nn(-c2ccccc2)c(NC(=O)N[C@@H]2CN(c3ccccc3Cl)C[C@H]2c2ccccc2)c1C` [Example 238, 1-(3-ethoxy-4-methyl-1-phenyl-1H-pyrazol-5-yl)-3-((3S,4R)-1-(2-chlorophenyl)-4-phenylpyrrolidin-3-yl)urea] it was 100 to 1000 nM; in that of `COCCN1C[C@@H](NC(=O)Nc2cc(-c3ccccc3C)nn2C)[C@H](c2ccc(F)c(F)c2)C1` [Example 104, 1-((3S,4R)-4-(3,4-difluorophenyl)-1-(2-methoxyethyl)pyrrolidin-3-yl)-3-(1-methyl-3-o-tolyl-1H-pyrazol-5-yl) urea], under 100 nM. `CCOc1nn(-c2ccccc2)c(NC(=O)N[C@@H]2CN(CCOC)C[C@H]2c2ccc(F)cc2)c1C` [Example 147, 1-(3-ethoxy-4-methyl-1-phenyl-1H-pyrazol-5-yl)-3-((3S,4R)-4-(4-fluorophenyl)-1-(2-methoxyethyl)pyrrolidin-3-yl)urea] showed an IC50 of under 100 nM. Regarding `COCCc1nn(-c2ccccc2)c(NC(=O)N[C@@H]2CN(CCOC)C[C@H]2c2ccc(F)c(F)c2)c1C` [Example 134, 1-((3S,4R)-4-(3,4-difluorophenyl)-1-(2-methoxyethyl)pyrrolidin-3-yl)-3-(3-(2-methoxy-ethyl)-4-methyl-1-phenyl-1H-pyrazol-5-yl)urea], the IC50 was under 100 nM. Take `COCCN1C[C@@H](NC(=O)Nc2c3c(nn2-c2ccccn2)CCC3)[C@H](c2ccccc2)C1` (relative stereo) [Example 35, 1-(trans-1-(2-methoxyethyl)-4-phenylpyrrolidin-3-yl)-3-(2-(pyridin-2-yl)-2,4,5,6-tetrahydrocyclopenta[c]pyrazol-3-yl)urea]: the IC50 was 1000 to 10000 nM.

In the case of `COCCN1C[C@@H](NC(=O)Nc2cc(-c3ccc(F)cc3)nn2C)[C@H](c2ccc(F)c(F)c2)C1` [Example 113, 1-((3S,4R)-4-(3,4-difluorophenyl)-1-(2-methoxyethyl)pyrrolidin-3-yl)-3-(3-(4-fluoro-phenyl)-1-methyl-1H-pyrazol-5-yl)urea], the IC50 is under 100 nM. In turn, `COCCN1C[C@@H](NC(=O)Nc2c(C)c(OCC(N)=O)nn2-c2ccccc2)[C@H](c2ccc(F)c(F)c2)C1` [Example 547, 2-((5-(3-((3S,4R)-4-(3,4-difluorophenyl)-1-(2-methoxyethyl)pyrrolidin-3-yl)ureido)-4-methyl-1-phenyl-1H-pyrazol-3-yl)oxy)acetamide] registered a half-inhibitory concentration (IC50) of under 100 nM. `CCOc1cc(NC(=O)N[C@@H]2CN(CCOC)C[C@H]2c2ccc(F)c(F)c2)n(-c2ccccc2)n1` [Example 146, 1-((3S,4R)-4-(3,4-difluorophenyl)-1-(2-methoxyethyl)pyrrolidin-3-yl)-3-(3-ethoxy-1-phenyl-1H-pyrazol-5-yl)urea] came in with an IC50 of under 100 nM. On to `N#CCN1C[C@@H](NC(=O)Nc2c3c(nn2-c2ccccc2)CCC3)[C@H](c2ccccc2)C1` [Example 189, 1-((3S,4R)-1-(cyanomethyl)-4-phenylpyrrolidin-3-yl)-3-(2-phenyl-2,4,5,6-tetrahydrocyclopenta[c]pyrazol-3-yl)urea], for which the concentration for half-maximal inhibition (IC50) fell in the range of 100 to 1000 nM. The value for `CCOc1nn(-c2ccccc2)c(NC(=O)N[C@@H]2CN(c3ccnn3C)C[C@H]2c2cc(F)cc(F)c2)c1C` [Example 230, 1-((3S,4R)-4-(3,5-difluorophenyl)-1-(1-methyl-1H-pyrazol-5-yl)pyrrolidin-3-yl)-3-(3-ethoxy-4-methyl-1-phenyl-1H-pyrazol-5-yl)urea] was 100 to 1000 nM.

The values are drawn from patent US10323022B2, “Pyrrolidinyl urea, pyrrolidinyl thiourea and pyrrolidinyl guanidine compounds as TrkA kinase inhibitors” (Array BioPharma Inc., priority 2011, dated 2019).
